The subject of the assay is monoclonal antibodies induced by Compound A. As to the kind of experiment: Inhibition of the antibody-catalyzed hydrolysis of Compound 1 by free Compound A. It counts as biochemical, mice. Particulars: all three monoclonal antibodies. The protocol: The production of Compound 2 by a monoclonal antibody composition of this invention was assayed at a concentration of 20 μM monoclonal antibody and 1.5 mM Compound 1 in 10 percent dimethylsulfoxide (DMSO)/ATE buffer (0.52M ACES, 0.52M Tris, 0.01M ethanolamine pH 9.0) at 25° C. The initial rate of hydrolysis of Compound 1 by the monoclonal antibodies produced by three hybridomas followed Michaelis-Menten kinetics (Table 1 hereinafter).

For the compound `CC1(OP(=O)(O)Cc2ccc(CCN)cc2)CCCCC1` [Compound A], the “inhibition of the hydrolytic reaction by addition of free Compound A” value is on record as “extensive inhibition”.

(Values after patent publication US5250426A, “Molecules with antibody combining sites that induce asymmetry” (The Scripps Research Institute, priority 1991, dated 1993).)
